Laboratory results as given in ChEMBL document CHEMBL2401684, “Synthesis and evaluation of a conditionally-silent agonist for the α7 nicotinic acetylcholine receptor” (Bioorg Med Chem Lett, 2013).
The source made the active and inactive calls. The calls are words filed in the database; no cut-off is given here.

Key:
[1] = target: T1, Neuronal acetylcholine receptor subunit alpha-7 (Homo sapiens, UniProt P36544); test: Agonist activity at human alpha7 nAChR expressed in Xenopus laevis oocytes assessed as induction of acetylcholine-stimulated peak inward current by two-electrode voltage clamp assay; format: cell-based; details: Oocyte
T1 sequence (P36544 whole entry): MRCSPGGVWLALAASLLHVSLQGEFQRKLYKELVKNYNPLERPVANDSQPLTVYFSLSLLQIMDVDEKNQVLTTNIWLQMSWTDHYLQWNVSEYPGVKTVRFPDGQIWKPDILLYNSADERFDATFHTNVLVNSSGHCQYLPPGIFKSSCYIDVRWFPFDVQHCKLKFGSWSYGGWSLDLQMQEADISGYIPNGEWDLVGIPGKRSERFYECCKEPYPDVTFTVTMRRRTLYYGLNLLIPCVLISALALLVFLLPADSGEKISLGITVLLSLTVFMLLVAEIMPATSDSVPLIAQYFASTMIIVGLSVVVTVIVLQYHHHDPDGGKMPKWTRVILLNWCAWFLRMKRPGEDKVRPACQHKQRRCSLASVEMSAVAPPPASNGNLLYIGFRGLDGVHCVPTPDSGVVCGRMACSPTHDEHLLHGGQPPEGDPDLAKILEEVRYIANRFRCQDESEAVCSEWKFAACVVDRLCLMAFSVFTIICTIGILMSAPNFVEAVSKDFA

[2] = target: Neuronal acetylcholine receptor subunit alpha-7 (Rattus norvegicus) (UniProt Q05941); test: Agonist activity at rat alpha7 nAChR expressed in Xenopus laevis oocytes assessed as induction of acetylcholine-stimulated peak inward current by two-electrode voltage clamp assay; format: cell-based; details: Oocyte
Chain of Neuronal acetylcholine receptor subunit alpha-7 (Rattus norvegicus) (Q05941 whole entry): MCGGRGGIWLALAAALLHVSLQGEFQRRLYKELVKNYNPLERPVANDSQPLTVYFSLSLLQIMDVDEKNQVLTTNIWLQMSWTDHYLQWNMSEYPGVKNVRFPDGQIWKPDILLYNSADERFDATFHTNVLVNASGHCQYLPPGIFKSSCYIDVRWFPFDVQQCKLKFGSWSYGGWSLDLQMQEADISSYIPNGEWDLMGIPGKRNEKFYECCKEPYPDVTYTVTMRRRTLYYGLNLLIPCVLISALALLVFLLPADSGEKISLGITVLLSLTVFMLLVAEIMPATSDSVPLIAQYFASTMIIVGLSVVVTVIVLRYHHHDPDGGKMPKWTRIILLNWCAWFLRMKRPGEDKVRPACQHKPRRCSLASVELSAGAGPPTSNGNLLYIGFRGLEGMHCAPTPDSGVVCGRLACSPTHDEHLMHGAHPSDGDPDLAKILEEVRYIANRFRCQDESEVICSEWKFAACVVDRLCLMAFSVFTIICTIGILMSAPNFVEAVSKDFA

[3] = target: T1, Neuronal acetylcholine receptor subunit alpha-7; test: Silent agonist activity at human alpha7 nAChR expressed in Xenopus laevis oocytes assessed as induction of PNU-120596-stimulated peak current at 100 uM; format: cell-based; details: Oocyte
[4] = target: T1, Neuronal acetylcholine receptor subunit alpha-7; test: Antagonist activity at human alpha7 nAChR expressed in Xenopus laevis oocytes assessed as reduction of acetylcholine-induced peak current at 100 uM; format: cell-based; details: Oocyte
[5] = target: T1, Neuronal acetylcholine receptor subunit alpha-7; test: Silent agonist activity at human alpha7 nAChR expressed in Xenopus laevis oocytes assessed as induction of TQS-stimulated peak current; format: cell-based; details: Oocyte
[6] = target: T1, Neuronal acetylcholine receptor subunit alpha-7; test: Silent agonist activity at human alpha7 nAChR expressed in Xenopus laevis oocytes assessed as induction of PNU-120596-stimulated peak current; format: cell-based, Oocyte
[7] = target: T1, Neuronal acetylcholine receptor subunit alpha-7; test: Silent agonist activity at human alpha7 nAChR expressed in Xenopus laevis oocytes assessed as induction of PNU-120596-stimulated peak current in presence of methyllycaconitine; format: cell-based; details: Oocyte
[8] = target: T1, Neuronal acetylcholine receptor subunit alpha-7; test: Agonist activity at human alpha7 nAChR expressed in Xenopus laevis oocytes assessed as induction of peak current at 100 uM; format: cell-based; details: Oocyte

Row | SMILES | Activity [1] [%] | Activity [2] [%] | Activity [3] | Activity [4] | Activity [5] | IC50 [6] [µM] | Activity [7] | Activity [8]
1 | O=C(c1ccc(-c2cccc(C(F)(F)F)c2)o1)N1CCN2CCC1CC2 | < 2 | < 2 |  |  |  |  |  | 
2 | c1ccc(-c2cncc(C3=NCCCC3)c2)cc1 |  |  | Active | Active | Active | 41 | inactive | inactive
